Data reported in PubChem BioAssay AID248 (DTP/NCI, 2004).
“And” between values parts separate entries of the source, which are not always exact repeats. Equal entries are not always repeated. Toxic doses and inconclusive results are not listed.

Tested on: L1210 leukemia ip in BDF1 mice, survival T/C
Experiment: NCI In Vivo Anticancer Drug Screen. Data for tumor model L1210 Leukemia (intraperitoneal) in B6D2F1 (BDF1) mice
Settings: endpoint: mean survival time, higher = longer survival
Summary of the method: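 Ratio derived from survival: compound-dosed mice over vehicle-dosed mice, all bearing a transplantable tumor.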

[1] = dose: 100.0 mg/kg/injection, schedule: Q01DX009 (ip), vehicle: saline with Tween-80
[2] = dose: 200.0 mg/kg/injection, schedule: Q01DX009 (ip), vehicle: saline with Tween-80
[3] = dose: 100.0 mg/kg/injection, schedule: Q04DX002 (ip), vehicle: saline with Tween-80
[4] = dose: 50.0 mg/kg/injection, schedule: Q01DX009 (ip), vehicle: Klucel (hydroxypropylcellulose) (HPC)
[5] = dose: 75.0 mg/kg/injection, schedule: Q01DX009 (ip), vehicle: Klucel (hydroxypropylcellulose) (HPC)
[6] = dose: 100.0 mg/kg/injection, schedule: Q01DX001 (ip), vehicle: Klucel (hydroxypropylcellulose) (HPC)
[7] = dose: 100.0 mg/kg/injection, schedule: Q01DX009 (ip), vehicle: Klucel (hydroxypropylcellulose) (HPC)
[8] = dose: 200.0 mg/kg/injection, schedule: Q01DX001 (ip), vehicle: Klucel (hydroxypropylcellulose) (HPC)
[9] = dose: 200.0 mg/kg/injection, schedule: Q01DX009 (ip), vehicle: Klucel (hydroxypropylcellulose) (HPC)
[10] = dose: 150.0 mg/kg/injection, schedule: Q01DX009 (ip), vehicle: Klucel (hydroxypropylcellulose) (HPC)
[11] = dose: 50.0 mg/kg/injection, schedule: Q01DX009 (ip), vehicle: saline with Tween-80
[12] = dose: 100.0 mg/kg/injection, schedule: Q04DX003 (ip), vehicle: Klucel (hydroxypropylcellulose) (HPC)
[13] = dose: 200.0 mg/kg/injection, schedule: Q04DX003 (ip), vehicle: Klucel (hydroxypropylcellulose) (HPC)
[14] = dose: 400.0 mg/kg/injection, schedule: Q04DX003 (ip), vehicle: Klucel (hydroxypropylcellulose) (HPC)
[15] = dose: 100.0 mg/kg/injection, schedule: Q04DX002 (ip), vehicle: Klucel (hydroxypropylcellulose) (HPC)
[16] = dose: 200.0 mg/kg/injection, schedule: Q04DX002 (ip), vehicle: Klucel (hydroxypropylcellulose) (HPC)
[17] = dose: 400.0 mg/kg/injection, schedule: Q01DX009 (ip), vehicle: Klucel (hydroxypropylcellulose) (HPC)
[18] = dose: 400.0 mg/kg/injection, schedule: Q04DX002 (ip), vehicle: Klucel (hydroxypropylcellulose) (HPC)

S=C(Nc1ccc(C2=NCCN2)cc1)c1ccc(C(=S)Nc2ccc(C3=NCCN3)cc2)cc1 was tested, and the T/C (dose: 1.0 mg/kg/injection, schedule: Q01DX Z (ip), vehicle: saline) was 108 % of control, the T/C (dose: 2.0 mg/kg/injection, schedule: Q01DX Z (ip), vehicle: saline) was 108 % of control and the T/C (dose: 4.0 mg/kg/injection, schedule: Q01DX Z (ip), vehicle: saline) was 124 % of control. For the same compound, the T/C (dose: 15.0 mg/kg/injection, schedule: Q01DX Z (ip), vehicle: carboxymethylcellulose (CMC)) was 219 % of control, the T/C (dose: 30.0 mg/kg/injection, schedule: Q01DX Z (ip), vehicle: carboxymethylcellulose (CMC)) was 182 % of control and the T/C (dose: 30.0 mg/kg/injection, schedule: Q01DX Z (oral), vehicle: saline) was 103 % of control. For the same compound, the T/C (dose: 60.0 mg/kg/injection, schedule: Q01DX Z (ip), vehicle: carboxymethylcellulose (CMC)) was 171 % of control, the T/C (dose: 60.0 mg/kg/injection, schedule: Q01DX Z (oral), vehicle: saline) was 101 % of control and the T/C (dose: 120.0 mg/kg/injection, schedule: Q01DX Z (oral), vehicle: saline) was 98 % of control. The T/C (dose: 240.0 mg/kg/injection, schedule: Q01DX Z (oral), vehicle: saline) was 101 % of control, the T/C (dose: 480.0 mg/kg/injection, schedule: Q01DX Z (oral), vehicle: saline) was 101 % of control and the T/C (dose: 960.0 mg/kg/injection, schedule: Q01DX Z (oral), vehicle: saline) was 101 % of control.

In the case of Cc1ccc(S(=O)(=O)N(CCC(=O)O)c2ccccc2)cc1, the T/C [1] was 90 % of control and the T/C [2] was 97 % of control.

With CCc1cccc(CC)c1NC(=S)NN the T/C [3] was 103 % of control.

Nc1cc(Cl)c2[nH]cnc2n1 was tested, and the T/C (dose: 33.0 mg/kg/injection, schedule: Q01DX009 (ip), vehicle: Klucel (hydroxypropylcellulose) (HPC)) was 179 % of control, the T/C [4] was 151 % of control and 159 % of control and the T/C [5] was 161 % of control. For the same compound, the T/C [6] was 118 % of control, the T/C [7] was 97 % of control and the T/C (dose: 133.0 mg/kg/injection, schedule: Q01DX001 (ip), vehicle: Klucel (hydroxypropylcellulose) (HPC)) was 119 % of control. For the same compound, the T/C [8] was 121 % of control and the T/C (dose: 300.0 mg/kg/injection, schedule: Q01DX001 (ip), vehicle: Klucel (hydroxypropylcellulose) (HPC)) was 122 % of control.

For CCOC(=O)c1cnc(NCC(C)(C)C)[nH]c1=O, the T/C (dose: 100.0 mg/kg/injection, schedule: Q01DX001 (ip), vehicle: saline) was 95 % of control, the T/C (dose: 200.0 mg/kg/injection, schedule: Q01DX001 (ip), vehicle: saline) was 91 % of control and the T/C (dose: 400.0 mg/kg/injection, schedule: Q01DX001 (ip), vehicle: saline) was 91 % of control.

For CCN(CC)C(=O)Nc1cc2c3c(c1)CCCN3CCC2, the T/C (dose: 50.0 mg/kg/injection, schedule: Q04DX002 (ip), vehicle: saline with Tween-80) was 96 % of control, the T/C [3] was 93 % of control and the T/C (dose: 200.0 mg/kg/injection, schedule: Q04DX002 (ip), vehicle: saline with Tween-80) was 90 % of control. The T/C (dose: 400.0 mg/kg/injection, schedule: Q04DX002 (ip), vehicle: saline with Tween-80) was 114 % of control.

For O=C(CCl)NCCCCCNC(=O)CCl, the T/C [7] was 104 % of control and the T/C [9] was 105 % of control.

For Cc1cc(=O)[nH]c(=S)[nH]1, the T/C [6] was 90 % of control, the T/C [8] was 101 % of control and the T/C (dose: 400.0 mg/kg/injection, schedule: Q01DX001 (ip), vehicle: Klucel (hydroxypropylcellulose) (HPC)) was 92 % of control.

In the case of Nc1cc2c3c(cccc3c1)C(=O)N(Cc1ccccc1)C2=O, the T/C [5] was 89 % of control, the T/C [10] was 92 % of control and the T/C (dose: 300.0 mg/kg/injection, schedule: Q01DX009 (ip), vehicle: Klucel (hydroxypropylcellulose) (HPC)) was 97 % of control.

For CCCCCCCCCCCCCCCCCC1=NCC[N+]1(CCO)Cc1ccccc1 (stereo not drawn) (tested in a mixture with another compound), the T/C (dose: 12.5 mg/kg/injection, schedule: Q04DX003 (ip), vehicle: saline with Tween-80) was 98 % of control and the T/C (dose: 25.0 mg/kg/injection, schedule: Q04DX003 (ip), vehicle: saline with Tween-80) was 101 % of control.

With CC1C(C)(C)C1(F)Cl (stereo not drawn) the T/C (dose: 100.0 mg/kg/injection, schedule: Q01DX001 (ip), vehicle: carboxymethylcellulose (CMC)) was 95 % of control, the T/C (dose: 200.0 mg/kg/injection, schedule: Q01DX001 (ip), vehicle: carboxymethylcellulose (CMC)) was 103 % of control and the T/C (dose: 400.0 mg/kg/injection, schedule: Q01DX001 (ip), vehicle: carboxymethylcellulose (CMC)) was 108 % of control.

For COc1ccc(/C=N/NC(=O)CNC(=O)c2ccc(Cl)c(Cl)c2)cc1OC, the T/C [11] was 91 % of control, the T/C [1] was 91 % of control and the T/C [2] was 102 % of control.

In the case of CCCCCCCCCCCCCCCCOc1ccc(-c2cc(=O)n(C)n2C)cc1, the T/C [12] was 95 % of control, the T/C [13] was 101 % of control and the T/C [14] was 95 % of control.

In the case of CC1(C)N=C(N)N=C(N)N1c1cccc(CCCCc2ccc(Cl)c(S(=O)(=O)F)c2)c1, the T/C (dose: 7.0 mg/kg/injection, schedule: Q04DX003 (ip), vehicle: saline) was 97 % of control, the T/C (dose: 12.5 mg/kg/injection, schedule: Q01DX009 (ip), vehicle: saline sonified) was 91 % of control and the T/C (dose: 12.5 mg/kg/injection, schedule: Q04DX003 (ip), vehicle: saline sonified) was 100 % of control. The T/C (dose: 14.0 mg/kg/injection, schedule: Q04DX003 (ip), vehicle: saline) was 95 % of control, the T/C (dose: 25.0 mg/kg/injection, schedule: Q04DX003 (ip), vehicle: saline sonified) was 102 % of control and the T/C (dose: 28.0 mg/kg/injection, schedule: Q04DX003 (ip), vehicle: saline) was 88 % of control. For the same compound, the T/C (dose: 50.0 mg/kg/injection, schedule: Q04DX003 (ip), vehicle: saline sonified) was 96 % of control and the T/C (dose: 56.0 mg/kg/injection, schedule: Q04DX003 (ip), vehicle: saline) was 93 % of control.

For COc1ccc2ccccc2c1C1NC(=O)c2ccccc2N1 (stereo not drawn), the T/C [4] was 97 % of control, the T/C [7] was 97 % of control and the T/C [10] was 92 % of control.

With COc1cc(/C=N/NC(=O)Cc2cccc3ccccc23)ccc1O the T/C [7] was 109 % of control, the T/C [15] was 107 % of control and the T/C [9] was 93 % of control. For the same compound, the T/C [16] was 104 % of control, the T/C [17] was 98 % of control and the T/C [18] was 96 % of control.

With COc1ccc(NC(=O)c2ccccc2Cl)cc1 the T/C [7] was 97 % of control, the T/C [12] was 105 % of control and the T/C [9] was 95 % of control. The T/C [13] was 97 % of control, the T/C [17] was 95 % of control and the T/C [14] was 96 % of control.

With Cc1ccccc1N1CCN(CCC(=O)c2cc3ccccc3o2)CC1 the T/C (dose: 5.0 mg/kg/injection, schedule: Q01DX009 (ip), vehicle: saline with Tween-80) was 104 % of control, the T/C (dose: 9.5 mg/kg/injection, schedule: Q04DX003 (ip), vehicle: saline with Tween-80) was 96 % of control and the T/C (dose: 10.0 mg/kg/injection, schedule: Q01DX009 (ip), vehicle: saline with Tween-80) was 100 % of control. For the same compound, the T/C (dose: 18.0 mg/kg/injection, schedule: Q01DX001 (ip), vehicle: saline with Tween-80) was 94 % of control, the T/C (dose: 19.0 mg/kg/injection, schedule: Q04DX003 (ip), vehicle: saline with Tween-80) was 116 % of control and the T/C (dose: 20.0 mg/kg/injection, schedule: Q01DX009 (ip), vehicle: saline with Tween-80) was 106 % of control. The T/C (dose: 37.5 mg/kg/injection, schedule: Q01DX001 (ip), vehicle: saline with Tween-80) was 101 % of control.

In the case of Nc1ccc(C(=O)O)c(C(=O)O)c1, the T/C [1] was 101 % of control, the T/C [12] was 100 % of control and the T/C [2] was 91 % of control. The T/C [13] was 98 % of control and the T/C [14] was 102 % of control.

In the case of Cc1ccc2nc[nH]c(=O)c2c1, the T/C [15] was 106 % of control, the T/C [16] was 103 % of control and the T/C [18] was 103 % of control.

For CC(C)C(Cl)c1ccccc1 (stereo not drawn), the T/C [11] was 87 % of control, the T/C [1] was 91 % of control and the T/C [2] was 87 % of control.

In the case of CCOc1ccccc1-c1nc2ccccc2s1, the T/C (dose: 100.0 mg/kg/injection, schedule: Q04DX003 (ip), vehicle: DMSO) was 89 % of control, the T/C (dose: 200.0 mg/kg/injection, schedule: Q04DX003 (ip), vehicle: DMSO) was 89 % of control and the T/C (dose: 400.0 mg/kg/injection, schedule: Q04DX003 (ip), vehicle: DMSO) was 103 % of control.
